According to the CheMixHub viscosity set:

Assay: xn = mol fraction of the nth substance listed

CCCCN(CCCC)CCCC + CCCCOCCO
viscosity [mPa·s], 100 kPa
Conditions	298.15 K	303.15 K	308.15 K
x2 = 0.05	1.31	1.19	1.12
x2 = 0.1004	1.37	1.23	1.15
x2 = 0.1502	1.43	1.28	1.19
x2 = 0.2006	1.49	1.33	1.23
x2 = 0.2999	1.62	1.43	1.32
x2 = 0.3999	1.76	1.54	1.43
x2 = 0.5046	1.93	1.69	1.55
x2 = 0.6	2.1	1.83	1.67
x2 = 0.7	2.29	1.99	1.8
x2 = 0.8	2.5	2.16	1.96
x2 = 0.8997	2.7	2.36	2.14
x2 = 0.9498	2.79	2.43	2.21

CN(C)c1ccccc1 + CCCCOCCO
viscosity [mPa·s], 101.3 kPa
Conditions	x2 = 0.0991	x2 = 0.2007	x2 = 0.3163	x2 = 0.3988	x2 = 0.4955	x2 = 0.5977	x2 = 0.6989	x2 = 0.7971	x2 = 0.8968
298 K	1.298	1.369	1.479	1.586	1.715	1.88	2.076	2.281	2.555
303 K	1.184	1.245	1.338	1.42	1.524	1.666	1.825	2.002	2.23
308 K	1.096	1.14	1.221	1.291	1.384	1.501	1.643	1.79	1.991
313 K	1.022	1.063	1.129	1.186	1.266	1.369	1.486	1.617	1.781
318 K	0.947	0.984	1.041	1.089	1.156	1.217	1.346	1.459	1.601

O=C1c2ccccc2C(=O)C1(O)O + CCCC[N+](CCCC)(CCCC)CCCC.O=S(=O)([O-])O
Conditions	viscosity [mPa·s]
323.15 K, 100 kPa, x2 = 0.571	48500

C=CC#N + CCCO
viscosity [mPa·s], 101.33 kPa
Conditions	x1 = 0.1031	x1 = 0.203	x1 = 0.307	x1 = 0.4079	x1 = 0.5104	x1 = 0.6066	x1 = 0.7057	x1 = 0.8002	x1 = 0.9032
298.15 K	1.409	1.074	0.85	0.688	0.578	0.497	0.435	0.393	0.36
303.15 K	1.264	0.975	0.778	0.635	0.538	0.465	0.412	0.373	0.343
308.15 K	1.139	0.888	0.71	0.59	0.503	0.438	0.389	0.355	0.328

CC(=O)CC(C)=O + CCCO
303.15 K, 101 kPa
Conditions	viscosity [mPa·s]
x1 = 0.05	1.453
x1 = 0.1	1.271
x1 = 0.2999	0.922
x1 = 0.4999	0.769
x1 = 0.6999	0.697
x1 = 0.8994	0.673
x1 = 0.9487	0.667

CN(C)c1ccccc1 + CCCO
viscosity [mPa·s]
Conditions	303.15 K	308.15 K	313.15 K	318.15 K	323.15 K
101 kPa, x1 = 0.0503	1.685	–	–	–	–
101 kPa, x1 = 0.1049	1.625	–	–	–	–
101 kPa, x1 = 0.1825	1.552	–	–	–	–
101 kPa, x1 = 0.2575	1.482	–	–	–	–
101 kPa, x1 = 0.3423	1.413	–	–	–	–
101 kPa, x1 = 0.3929	1.377	–	–	–	–
101 kPa, x1 = 0.4121	1.365	–	–	–	–
101 kPa, x1 = 0.4703	1.328	–	–	–	–
101 kPa, x1 = 0.5523	1.29	–	–	–	–
101 kPa, x1 = 0.6229	1.265	–	–	–	–
101 kPa, x1 = 0.7221	1.242	–	–	–	–
101 kPa, x1 = 0.8096	1.225	–	–	–	–
101 kPa, x1 = 0.9023	1.198	–	–	–	–
101.33 kPa, x1 = 0.1011	1.587	1.335	1.205	1.091	0.9913
101.33 kPa, x1 = 0.1989	1.345	1.214	1.1	1.005	0.9196
101.33 kPa, x1 = 0.2994	1.249	1.134	1.033	0.9491	0.8709
101.33 kPa, x1 = 0.4015	1.194	1.09	0.9974	0.9328	0.8513
101.33 kPa, x1 = 0.4992	1.153	1.057	0.9763	0.9019	0.8384
101.33 kPa, x1 = 0.598	1.126	1.034	0.9608	0.8881	0.8254
101.33 kPa, x1 = 0.7024	1.117	1.044	0.965	0.8981	0.8357
101.33 kPa, x1 = 0.798	1.126	1.037	0.9602	0.8961	0.8364
101.33 kPa, x1 = 0.9026	1.154	1.071	0.9947	0.9284	0.8751

C=CC#N + CCCOC(C)=O
viscosity [mPa·s], 101.33 kPa
Conditions	x1 = 0.1052	x1 = 0.1835	x1 = 0.2994	x1 = 0.4057	x1 = 0.4982	x1 = 0.6097	x1 = 0.7023	x1 = 0.8019	x1 = 0.901
298.15 K	0.54	0.524	0.5	0.479	0.459	0.435	0.411	0.387	0.362
303.15 K	0.504	0.489	0.47	0.452	0.434	0.411	0.391	0.368	0.345
308.15 K	0.472	0.46	0.442	0.428	0.411	0.392	0.372	0.352	0.331

C=CC#N + CCO
viscosity [mPa·s], 101.33 kPa
Conditions	x1 = 0.1008	x1 = 0.1009	x1 = 0.2017	x1 = 0.3022	x1 = 0.403	x1 = 0.5025	x1 = 0.6044	x1 = 0.7032	x1 = 0.8006	x1 = 0.8993
298.15 K	–	0.859	0.704	0.593	0.513	0.458	0.415	0.384	0.363	0.348
303.15 K	–	0.787	0.648	0.551	0.48	0.431	0.392	0.364	0.345	0.332
308.15 K	0.724	–	0.602	0.513	0.451	0.405	0.371	0.347	0.329	0.318

CC(=O)CC(C)=O + CCO
303.15 K, 101 kPa
Conditions	viscosity [mPa·s]
x1 = 0.05	0.896
x1 = 0.0997	0.825
x1 = 0.3	0.702
x1 = 0.5	0.655
x1 = 0.6989	0.644
x1 = 0.9	0.651
x1 = 0.948	0.657

CC(C)(N)CO + CCO
313.15 K, 100 kPa
Conditions	viscosity [mPa·s]
x1 = 0.03	0.91
x1 = 0.054	1.05
x1 = 0.11	1.3
x1 = 0.26	2.32

CCCCC(C)O (stereo unspecified) + CCO
298.15 K, 101.33 kPa
Conditions	viscosity [mPa·s]
x2 = 0.1065	3.783
x2 = 0.2102	3.485
x2 = 0.3167	3.115
x2 = 0.4096	2.827
x2 = 0.5036	2.512
x2 = 0.6033	2.16
x2 = 0.7079	1.836
x2 = 0.8023	1.572
x2 = 0.9063	1.301

CCCCOC(=O)c1ccccc1C(=O)OCCCC + CCO
303.15 K, 101.33 kPa
Conditions	viscosity [mPa·s]
x1 = 0.0982	1.555
x1 = 0.1991	2.302
x1 = 0.4046	4.211
x1 = 0.5046	5.31
x1 = 0.5634	6.002
x1 = 0.694	7.761
x1 = 0.807	9.476
x1 = 0.8877	10.91
x1 = 0.9316	11.68

C=CC#N + CCOC(C)=O
viscosity [mPa·s]
Conditions	298.15 K	303.15 K	308.15 K
101.3 kPa, x1 = 0.0974	–	0.3987	–
101.3 kPa, x1 = 0.201	–	0.394	–
101.3 kPa, x1 = 0.302	–	0.3883	–
101.3 kPa, x1 = 0.3997	–	0.3824	–
101.3 kPa, x1 = 0.4964	–	0.3739	–
101.3 kPa, x1 = 0.5946	–	0.3654	–
101.3 kPa, x1 = 0.6974	–	0.3546	–
101.3 kPa, x1 = 0.7978	–	0.3413	–
101.3 kPa, x1 = 0.9018	–	0.3263	–
101.33 kPa, x1 = 0.1002	0.442	0.419	0.398
101.33 kPa, x1 = 0.2025	0.429	0.403	0.383
101.33 kPa, x1 = 0.3034	0.42	0.397	0.377
101.33 kPa, x1 = 0.4047	0.408	0.387	0.369
101.33 kPa, x1 = 0.5034	0.4	0.379	0.361
101.33 kPa, x1 = 0.5994	0.39	0.368	0.352
101.33 kPa, x1 = 0.7007	0.381	0.364	0.351
101.33 kPa, x1 = 0.8021	0.369	0.358	0.344
101.33 kPa, x1 = 0.9003	0.358	0.349	0.328

Cn1ccnc1 + CCOC(C)=O
viscosity [mPa·s], 101 kPa
Conditions	298.15 K	308.15 K	318.15 K
x1 = 0.0518	0.4901	0.4509	0.417
x1 = 0.1042	0.5183	0.4734	0.4355
x1 = 0.2036	0.5796	0.524	0.4789
x1 = 0.3106	0.661	0.5919	0.5383
x1 = 0.4006	0.7306	0.6504	0.587
x1 = 0.4976	0.826	0.7281	0.6494
x1 = 0.6011	0.9571	0.8342	0.7376
x1 = 0.6961	1.09	0.9437	0.8289
x1 = 0.8012	1.266	1.082	0.9423
x1 = 0.9	1.468	1.245	1.074
x1 = 0.9496	1.57	1.331	1.144
